# Test results reported in US6429209B2, “Methods for treating irritable bowel syndrome” (SmithKline Beecham Corporation, priority 1997, dated 2002).
# Where two headings read alike, the source gives them in different places.
# Key:
# [1] = test system: IBS patients; conditions: cited from earlier work
# [2] = test system: IBS patients; assay: 12-week placebo-controlled clinical study of alosetron (1, 2, 4 or 8 mg BID) in nonconstipated IBS patients; format: in vivo, human; conditions: for % Responders (adequate relief of IBS pain and discomfort): 12 weeks; for % Days with Urgency / Stool # per day / Stool Consistentcy: mean, week 9-12 interval; for Stool Consistentcy: score 1= very hard to 5= watery; for % Weeks with adequate relief: median
# Description: Three hundred and seventy IBS patients were randomised for study: 80 were randomised to treatment with placebo BID, 72 to 1 mg BID alosetron, 74 to 2 mg BID alosetron, 76 to 4 mg BID alosetron and 68 to 8 mg BID alosetron. […] Patients were required to have symptoms which fulfilled the Rome Criteria for IBS (5) for at least 6 months. […] Daily and weekly symptom data were collected using a recently described electronic touch-tone telephone based system (24,25). Patients underwent a 2 week screening period with no IBS treatment to ensure sufficient baseline level of abdominal pain as well as compliance with the data collection system. Pain was assessed daily on a 5 point scale (0=none; 1=mild; 2=moderate; 3=intense; 4=severe). Average baseline pain over the 2 week screening period was required to be between 1.5-3.3, inclusive, and at least 4 days with at least moderate pain was required for enrolment into the study. Stool consistency data were also collected (1=very hard; 2=hard; 3=formed; 4=loose; and 5=watery). During the screening period an average stool consistency score of ≧2.5 was required for entry into the study in order to exclude those with predominant constipation. Following the screening period, eligible patients were randomised with equal allocation to 12 weeks of study medication (BID) of placebo or alosetron 1, 2, 4 or 8 mg taken prior to meals. Patients were followed for 2 weeks post-treatment. During the screening period, treatment phase and follow-up period, patients were asked daily questions about their IBS symptoms. Once every 7 days, during the treatment phase of the study, patients responded to an additional question as to whether they had obtained adequate relief of their IBS-related abdominal pain and discomfort during the previous 7 days. For this study, a responder was prospectively defined as a patient who completed the treatment phase of the study and reported adequate relief of their IBS pain and discomfort for at least 6 weeks. […] In addition, a monthly responder was defined as a patient who reported adequate relief of their IBS pain and discomfort for at least 2 weeks per month. For the monthly analysis, a last observation carried forward procedure was employed, whereby a month with all missing weeks was assigned the number of weeks with adequate relief from the previous non-missing month. Thus, this analysis satisfied the Intent-to-Treat principle by including all patients and months. Treatment groups were compared for the proportion of patients defined as responders, for both endpoints, using a Mantel-Haenszel test stratified for investigator cluster. Finally, the proportion of weeks with adequate relief was compared between treatment groups using a log-rank test. Daily stool consistency scores and daily number of bowel movements were averaged over the baseline, weekly for weeks 1-4, and monthly (weeks 1-4, 5-8, and 9-12) intervals. In addition, the proportion of days patients experienced a sense of urgency was calculated over the monthly and weekly intervals. For the monthly intervals, the treatment groups were compared for change from baseline using a van Elteren test adjusted for investigator cluster. For the weekly intervals, the treatment groups were compared at each week using a van Elteren test adjusted for-investigator cluster.
# [3] = test system: normal volunteers; conditions: cited from earlier work
# [4] = female patients, alosetron 1 mg BID
# [5] = female patients, alosetron 1 mg BID, month 1
# [6] = female patients, alosetron 1 mg BID, month 2
# [7] = female patients, alosetron 1 mg BID, month 3
# [8] = female patients, alosetron 2 mg BID
# [9] = female patients, alosetron 4 mg BID
# [10] = female patients, alosetron 8 mg BID
smiles,measurement,setting,value
CN1C2CCCC1CC(NC(=O)c1nn(C)c3ccccc13)C2 (stereo not shown) [granisetron],post-prandial motor activity,[1]; IBS patients,reduce post-prandial motor activity
same,rectal sensitivity,[1]; IBS patients,decrease in rectal sensitivity
"Cc1[nH]cnc1CN1CCc2c(c3ccccc3n2C)C1=O [Alosetron, 2,3,4,5-tetrahydro-5-methyl-2-[(5-methyl-1 H-imidazol-4-yl)methyl]-1H-pyrido[4,3-b]indol-1-one]",abdominal pain and bowel function,[2]; female IBS patients,significantly improved
same,more responders for adequate relief as compared to placebo,[2]; [4],27%
same,% Responders (adequate relief of IBS pain and discomfort),[2]; [4],60%
same,monthly adequate relief,"[2]; female patients, alosetron 1 mg BID, each month",statistically significant improvement
same,"% Responders, monthly intervals (adequate relief)",[2]; [5],53%
same,increase in monthly responders above placebo,[2]; [5],21%
same,"% Responders, monthly intervals (adequate relief)",[2]; [6],62%
same,increase in monthly responders above placebo,[2]; [6],20%
same,"% Responders, monthly intervals (adequate relief)",[2]; [7],60%
same,increase in monthly responders above placebo,[2]; [7],24%
same,% Responders (adequate relief of IBS pain and discomfort),[2]; [8],59%
same,% Responders (adequate relief of IBS pain and discomfort),[2]; [9],51%
same,% Responders (adequate relief of IBS pain and discomfort),[2]; [10],52%
same,time of treatment after which a statistically significant benefit over placebo in bowel parameters was achieved,"[2]; female patients, benefit persisted throughout 12 week treatment",1 week
same,% Days with Urgency,[2]; [4],33.0%
same,Stool # per day,[2]; [4],1.4
same,Stool Consistentcy,[2]; [4],2.1
same,% Days with Urgency,[2]; [8],35.9%
same,Stool # per day,[2]; [8],1.7
same,Stool Consistentcy,[2]; [8],2.2
same,% Days with Urgency,[2]; [9],37.8%
same,Stool # per day,[2]; [9],1.8
same,Stool Consistentcy,[2]; [9],2.4
same,% Days with Urgency,[2]; [10],41.5%
same,Stool # per day,[2]; [10],1.3
same,Stool Consistentcy,[2]; [10],1.8
same,% Weeks with adequate relief,[2]; [4],58%
same,% Weeks with adequate relief,[2]; [8],50%
same,% Weeks with adequate relief,[2]; [9],50%
same,% Weeks with adequate relief,[2]; [10],50%
same,"stool consistency, bowel movement frequency and proportion of days with urgency as compared to placebo","[2]; female patients, most doses of alosetron",significantly improved
same,proportion of weeks with adequate relief,[2]; male patients,no meaningful benefit
same,% Responders (adequate relief of IBS pain and discomfort),"[2]; male patients, alosetron 1 mg BID",20%
same,% Responders (adequate relief of IBS pain and discomfort),"[2]; male patients, alosetron 2 mg BID",50%
same,% Responders (adequate relief of IBS pain and discomfort),"[2]; male patients, alosetron 4 mg BID",54%
same,% Responders (adequate relief of IBS pain and discomfort),"[2]; male patients, alosetron 8 mg BID",52%
same,responders for adequate relief relative to placebo,"[2]; male population, any dose of alosetron",No meaningful improvement relative to placebo
same,"bowel-related functions with the exception of stool consistency, versus placebo",[2]; males,no significant improvement over placebo
same,monthly adequate relief relative to placebo,"[2]; males, any month, any dose of alosetron",No improvement relative to placebo
same,stool consistency,"[2]; males, doses of alosetron higher than 1 mg BID",improved significantly
same,tolerability,[2]; nonconstipated female IBS patients,well tolerated
same,colonic transit,"[1]; IBS patients, preliminary reports",slow colonic transit
same,abdominal pain,[1]; preliminary reports,improve abdominal pain
Cc1nccn1CC1CCc2c(c3ccccc3n2C)C1=O (stereo not shown) [ondansetron],contractile response of the colon,"[3]; healthy volunteers, early postprandial period",inhibits the contractile response of the colon
same,colonic transit,[3]; normal volunteers,slow colonic transit
same,stool consistency,[1]; diarrhoea-predominant IBS patients,improves stool consistency
same,rectal compliance,[1]; patients with IBS,increases rectal compliance
